According to BindingDB's records for doi:10.1021/jm011128+ (2002):

Columns and labels:
[1] = target: Thymidine kinase 2, mitochondrial (Homo sapiens) (UniProt O00142); experiment: Inhibitory effect against phosphorylation of [methyl-3H]dThd by Thymidine Kinase 2 (TK-2)
[2] = target: Thymidine kinase (Human herpesvirus 1); experiment: Inhibitory activity against HSV-1 Thymidine kinase in OST-TK-/HSV-1 TK+ cell line in combination with BVAraU
[3] = target: Thymidine kinase (Human herpesvirus 1); experiment: Inhibitory activity against HSV-1 Thymidine kinase in OST-TK-/HSV-1 TK+ cell line in combination with gancicclovir
[4] = target: Thymidine kinase (Human herpesvirus 1); experiment: Compound was evaluated for inhibitory effect against phosphorylation of [methyl-3H]dThd by HSV-1 Thymidine kinase

Chain of Thymidine kinase 2, mitochondrial (Homo sapiens) (O00142 whole entry, looked up): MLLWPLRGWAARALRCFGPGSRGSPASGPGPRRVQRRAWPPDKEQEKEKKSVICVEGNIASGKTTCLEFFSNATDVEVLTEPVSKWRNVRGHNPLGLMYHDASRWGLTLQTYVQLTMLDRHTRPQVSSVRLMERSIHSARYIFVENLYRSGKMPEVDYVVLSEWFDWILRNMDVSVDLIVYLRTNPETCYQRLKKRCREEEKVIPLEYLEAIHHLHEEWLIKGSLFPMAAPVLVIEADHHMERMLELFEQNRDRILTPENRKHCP

Row | IC50 [1] [µM] | SMILES | further results
1 | 4.6 | Cc1cn(C/C=C\COC(=O)C(c2ccccc2)c2ccccc2)c(=O)[nH]c1=O [Diphenyl-acetic acid 4-(5-methyl-2,4-dioxo-3,4-dihydro-2H-pyrimidin-1-yl)-but-2-enyl ester] | 
2 | 30 | Cc1cn(C/C=C\COC(=O)c2ccccc2)c(=O)[nH]c1=O [Benzoic acid 4-(5-methyl-2,4-dioxo-3,4-dihydro-2H-pyrimidin-1-yl)-but-2-enyl ester] | 

More lines, now with the values behind:

Row | SMILES | IC50 [1] [µM] | further results
3 | Cc1cn(Cc2ccccc2COC(c2ccccc2)(c2ccccc2)c2ccccc2)c(=O)[nH]c1=O [5-Methyl-1-(2-trityloxymethyl-benzyl)-1H-pyrimidine-2,4-dione] |  | IC50 [2]: 0.008 µM; IC50 [3]: 0.002 µM
4 | Cc1cn(C/C=C\COCc2ccccc2)c(=O)[nH]c1=O [1-(4-Benzyloxy-but-2-enyl)-5-methyl-1H-pyrimidine-2,4-dione] | 22 | 
5 | Cc1cn(C/C=C\COC(=O)C(C)(C)C)c(=O)[nH]c1=O [2,2-Dimethyl-propionic acid 4-(5-methyl-2,4-dioxo-3,4-dihydro-2H-pyrimidin-1-yl)-but-2-enyl ester] | 40 | 
6 | COc1ccc(C(OCC2OC(n3cc(C)c(=O)[nH]c3=O)CC2O)(c2ccccc2)c2ccc(OC)cc2)cc1 (stereo not drawn) [1-{5-[Bis-(4-methoxy-phenyl)-phenyl-methoxymethyl]-4-hydroxy-tetrahydro-furan-2-yl}-5-methyl-1H-pyrimidine-2,4-dione] |  | IC50 [4]: 14 µM
7 | Cc1cn(CC#CCOC(c2ccccc2)(c2ccccc2)c2ccccc2)c(=O)[nH]c1=O [5-Methyl-1-(4-trityloxy-but-2-ynyl)-1H-pyrimidine-2,4-dione] |  | IC50 [4]: 3.1 µM
